Experimental data taken from patent US20240116910A1, “Heterocycles as WIP1 Inhibitors” (PMV Pharmaceuticals, Inc., priority 2022, published 2024).
pIC50: −log10 of the molar value.

What was measured:
[1] = target: recombinant His-tag Wip1 full length protein (amino acids #1-605) (Homo sapiens (Human), UniProt O15297); test: Wip1 full length phosphatase enzyme FDP assay; type: biochemical; details: fluorescein diphosphate (FDP) substrate, RT 2 hours, fluorescence Ex485/Em535
Method: The Human Wip1 (2-420, aa 2-420) or Wip1 full length (aa 1-605) DNA sequence was codon optimized and synthesized by Genscript for insect cell expression. The open reading frame of Wip1(2-420) with a N-terminal-His6 affinity tag followed by a TEV cleavage site was subcloned sites into the pFastBac1 expression vector. The recombinant bacmid DNA was transfected in Sf9 insect cells for baculovirus production. After 72 hours infection, the Sf9 cells were harvested by centrifugation and resuspended in lysis buffer containing 50 mM Tris/HCl, pH 8.0, 500 mM NaCl, 20% glycerol, Benzonase 0.5% CHAPS and Roche cOmplete™ EDTA free protease inhibitors. Cells were disrupted with microfluidizer and the debris was removed by centrifugation at 185,000 g for 1 hour. The supernatant was subjected to HisTrap FF for affinity purification. Proteins were eluted with a linear gradient of 0-500 mM imidazole in HisTrap buffer containing 50 mM Tris/HCl, pH 8.0, 500 mM NaCl and 20% glycerol, 0.05% CHAPS. The eluted protein was dialyzed against dialysis buffer (20 mM MES, 100 mM NaCl, 20% glycerol, 0.5 mM TCEP, 0.05% CHAPS) followed purification via HiTrap SP HP column. The protein was eluted with a gradient of 100 mM-2 M NaCl in dialysis buffer. His6-[…] was finally concentrated and loaded onto a size-exclusion column (NiLoad 16/600 Superdex 200 pg, GE Healthcare) pre-equilibrated with 50 mM MOPS (pH 7.5), 200 mM NaCl, 20% glycerol, 1 mM TCEP, 0.05% CHAPS and 0.1 mM EGTA. The peak fractions containing purified Nis6-Wip1(2-420) were pooled and concentrated to 1.0 mg/mL and flash frozen at −80° C.
Wip1 Length and Wip1(2-420) Phosphatase Enzyme FDP Assays.
Test compounds (252 mM stock in DMSO) were diluted 3 folds in series in DMSO and 1.2 μl per well were added into 384-well polypropylene black plates (Nunc). Twelve μl per well of Assay Buffer (100 mM NaCl, 50 mM MOPS, pH 7.5, 0.8 mM CHAPS, 0.1 mM EGTA, 30 mM MgCl2, 0.3 mM TCEP, 0.2 mg/mL BSA) was added followed by […] per well of 50.4 nM recombinant His-tag Wip1 full length protein (amino acids #1-605) or recombinant His-tag Wip1(2-420) protein (amino acids #2-420) in Assay Buffer and the plate was incubated at RT (22° C.) for 5 min. Ten mM of fluorescein diphosphate (FDP) in DMSO was diluted to […] in Assay Buffer and […] per well was added to the plate and incubated at RT (22° C.) for 2 hours. […] per well of 64.1 mM EDTA in water were added to stop the enzyme reaction. The plate was centrifuged at 1,200 rpm (Eppendorf 5810R Plate centrifuge) for 1 minute and fluorescence intensity (Ex485/Em535) was measured on Perkin Elmer Victor Reader. EC50 values were calculated using either Prism (GraphPad) or ActivityBase software (IDBS), The IC50 results are provided in Table M.

[2] = target: recombinant His-tag Wip1(2-420) protein (amino acids #2-420) (Homo sapiens (Human), UniProt O15297); test: Wip1(2-420) phosphatase enzyme FDP assay; type: biochemical; details: fluorescein diphosphate (FDP) substrate, RT 2 hours, fluorescence Ex485/Em535; read-out: WIP1 (Truncated 2-420) FDP Assay: IC50
Sequence of recombinant His-tag Wip1(2-420) protein (amino acids #2-420) (O15297 2-420): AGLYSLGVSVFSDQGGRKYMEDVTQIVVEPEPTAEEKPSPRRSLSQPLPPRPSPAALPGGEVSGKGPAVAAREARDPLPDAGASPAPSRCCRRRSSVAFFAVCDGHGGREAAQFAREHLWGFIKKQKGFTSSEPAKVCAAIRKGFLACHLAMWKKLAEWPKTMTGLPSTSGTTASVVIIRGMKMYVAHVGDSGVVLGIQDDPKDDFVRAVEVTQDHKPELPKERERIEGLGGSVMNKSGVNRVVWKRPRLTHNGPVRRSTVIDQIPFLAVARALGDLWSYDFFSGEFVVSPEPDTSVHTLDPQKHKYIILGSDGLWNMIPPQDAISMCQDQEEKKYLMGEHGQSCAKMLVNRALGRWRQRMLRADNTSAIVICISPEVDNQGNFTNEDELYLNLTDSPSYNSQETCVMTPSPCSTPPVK

Sequence of recombinant His-tag Wip1 full length protein (amino acids #1-605) (O15297 whole entry, the tested form may be a part): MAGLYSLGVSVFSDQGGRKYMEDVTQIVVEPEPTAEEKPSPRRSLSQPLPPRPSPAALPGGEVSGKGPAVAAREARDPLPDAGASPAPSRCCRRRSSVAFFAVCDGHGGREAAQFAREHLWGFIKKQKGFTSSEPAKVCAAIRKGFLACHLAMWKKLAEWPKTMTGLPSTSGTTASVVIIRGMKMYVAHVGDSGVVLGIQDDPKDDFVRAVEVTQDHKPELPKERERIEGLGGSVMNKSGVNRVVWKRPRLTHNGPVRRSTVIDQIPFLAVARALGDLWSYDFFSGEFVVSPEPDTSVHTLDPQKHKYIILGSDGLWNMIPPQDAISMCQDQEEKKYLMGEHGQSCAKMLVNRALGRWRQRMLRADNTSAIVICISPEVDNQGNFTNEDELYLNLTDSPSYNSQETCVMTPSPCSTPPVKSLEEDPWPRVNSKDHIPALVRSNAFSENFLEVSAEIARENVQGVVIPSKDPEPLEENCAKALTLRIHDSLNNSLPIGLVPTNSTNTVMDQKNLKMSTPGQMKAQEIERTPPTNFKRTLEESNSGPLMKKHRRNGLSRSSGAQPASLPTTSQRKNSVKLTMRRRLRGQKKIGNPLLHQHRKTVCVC

Q: Which results are given for `C[C@@H](Nc1cccc(Cl)c1)c1ncc(C(=O)N[C@@H](CC2CCCC2)C(=O)NC2CC2)s1` [Compound 125, (2S)-2-({2-[(1R)-1-[(3-chlorophenyl)amino]ethyl]-1,3-thiazol-5-yl}formamido)-3-cyclopentyl-N-cyclopropylpropanamide]?
A: pIC50 [1]: 7.80; pIC50 [2]: 7.23

Q: What does the source list for `CC(c1ccc(C(=O)N[C@@H](CC2CCCC2)C(=O)NC2CC2)s1)N1CCc2cc(F)c(Cl)cc21` (stereo partly drawn) [Compound 46, (2S)-2-({5-[1-(6-chloro-5-fluoro-2,3-dihydro-1H-indol-1-yl)ethyl]thiophen-2-yl}formamido)-3-cyclopentyl-N-cyclopropylpropanamide]?
A: pIC50 [1]: 7.64; pIC50 [2]: 7.80

Q: How did the pIC50 [1] turn out when `CCc1ncc(Cl)cc1N[C@H](C)c1ccc(C(=O)N[C@@H](CC2CCCC2)C(=O)NC2CC2)s1` [Compound 79, (2S)-2-({5-[(1R)-1-[(5-chloro-2-ethylpyridin-3-yl)amino]ethyl]thiophen-2-yl}formamido)-3-cyclopentyl-N-cyclopropylpropanamide] was run?
A: Its pIC50 is 6.51.

Q: And the pIC50 [2]?
A: The pIC50 was 6.65.

Q: How did the pIC50 [1] turn out when `Cc1ncc(Cl)cc1NC(C)c1ccc(C(=O)N[C@@H](CC2CCCC2)C(=O)NC2CC2)s1` (stereo partly drawn) [Compound 5, 5-[1-[(5-chloro-2-methyl-3-pyridyl)amino]ethyl]-N-[(1S)-1-(cyclopentylmethyl)-2-(cyclopropylamino)-2-oxo-ethyl]thiophene-2-carboxamide] was run?
A: The pIC50 was 7.62.

Q: And the pIC50 [2]?
A: The pIC50 was 7.89.

Q: Which results are given for `CC(Nc1cccc(Cl)c1)c1ccc(C(=O)N[C@@H](CC2CCCC2)C(=O)NC2CC2)s1` (stereo partly drawn) [Compound 4, 5-[1-(3-chloroanilino)ethyl]-N-[(1S)-1-(cyclopentylmethyl)-2-(cyclopropylamino)-2-oxo-ethyl]thiophene-2-carboxamide]?
A: pIC50 [1]: 7.82; pIC50 [2]: 7.10

Q: With `COc1ncc(Cl)cc1N[C@H](C)c1ccc(C(=O)N[C@@H](CC2CCCC2)C(=O)N[C@@H]2CC2(F)F)s1` [Compound 36, (2S)-2-({5-[(1R)-1-[(5-chloro-2-methoxypyridin-3-yl)amino]ethyl]thiophen-2-yl}formamido)-3-cyclopentyl-N-[(1R)-2,2-difluorocyclopropyl]propanamide] as the compound, how does the pIC50 [1] read?
A: Its pIC50 is 8.00.

Q: What about the pIC50 [2] of the same compound?
A: Its pIC50 is 8.10.

Q: `Cc1ncc(Cl)cc1NC(C)(C)c1ccc(C(=O)N[C@@H](CC2CCCC2)C(=O)NC2CC2)s1` [Compound 55, (2S)-2-[(5-{2-[(5-chloro-2-methylpyridin-3-yl)amino]propan-2-yl}thiophen-2-yl)formamido]-3-cyclopentyl-N-cyclopropylpropanamide] was tested. Which pIC50 [1] did it give?
A: Its pIC50 is 7.44.

Q: What about the pIC50 [2] of the same compound?
A: The pIC50 was 7.54.

Q: `Cc1ncc(Cl)cc1NC(C)(C)c1ccc(C(=O)N[C@@H](CC2CCCC2)C(=O)NC23CC(C2)C3)s1` [Compound 54, (2S)-N-{bicyclo[1.1.1]pentan-1-yl}-2-[(5-{2-[(5-chloro-2-methylpyridin-3-yl)amino]propan-2-yl}thiophen-2-yl)formamido]-3-cyclopentylpropanamide] was tested. Which pIC50 [1] did it give?
A: The pIC50 was 7.96.

Q: What about the pIC50 [2] of the same compound?
A: Its pIC50 is 8.10.

Q: How did the pIC50 [2] turn out when `COc1cccc(-c2ncc(Cl)cc2N[C@@H](C)c2ccc(C(=O)N[C@@H](CC3CCCC3)C(=O)NC3CC3)s2)c1` [Compound 267, (2S)-2-({5-[(1S)-1-{[5-chloro-2-(3-methoxyphenyl)pyridin-3-yl]amino}ethyl]thiophen-2-yl}formamido)-3-cyclopentyl-N-cyclopropylpropanamide] was run?
A: Its pIC50 is 8.00.

Q: How did the pIC50 [2] turn out when `O=C(N[C@@H](CC1CCCC1)C(=O)NC1CC1)c1ccc([C@H]2CCc3c(Cl)cccc3N2)s1` [Compound 251, (2S)-2-({5-[(2R)-5-chloro-1,2,3,4-tetrahydroquinolin-2-yl]thiophen-2-yl}formamido)-3-cyclopentyl-N-cyclopropylpropanamide] was run?
A: Its pIC50 is 6.17.

Q: `C[C@H](Nc1cc(Cl)cnc1-c1cccc(Cl)c1)c1ccc(C(=O)N[C@@H](CC2CCCC2)C(=O)NC2CC2)s1` [Compound 231, (2S)-2-({5-[(1S)-1-{[5-chloro-2-(3-chlorophenyl)pyridin-3-yl]amino}ethyl]thiophen-2-yl}formamido)-3-cyclopentyl-N-cyclopropylpropanamide] was tested. Which pIC50 [2] did it give?
A: Its pIC50 is 8.10.

Q: `Cc1ncc(Cl)cc1N[C@@H](C)c1ncc(C(=O)N[C@@H](CC2CCCC2)C(=O)NC23CC(C2)C3)s1` [Compound 310, (2S)-N-{bicyclo[1.1.1]pentan-1-yl}-2-({2-[(1S)-1-[(5-chloro-2-methylpyridin-3-yl)amino]ethyl]-1,3-thiazol-5-yl}formamido)-3-cyclopentylpropanamide] was tested. Which pIC50 [2] did it give?
A: The pIC50 was 5.99.

Q: With `Cc1ncc(Cl)cc1N[C@@H](C)c1ccc(C(=O)N[C@@H](CC2CCC3CC32)C(=O)N[C@H]2C[C@H](F)C2)s1` (stereo partly drawn) [Compound 116, (2S)-3-{bicyclo[3.1.0]hexan-2-yl}-2-({5-[(1S)-1-[(5-chloro-2-methylpyridin-3-yl)amino]ethyl]thiophen-2-yl}formamido)-N-[(1r,3r)-3-fluorocyclobutyl]propanamide] as the compound, how does the pIC50 [2] read?
A: Its pIC50 is 8.00.

Q: With `Cc1ncc(Cl)cc1N[C@@H](Cc1ccc(F)cc1)c1ccc(C(=O)N[C@@H](CC2CCCC2)C(=O)NC2CC2)s1` [Compound 223, (2S)-2-({5-[(1S)-1-[(5-chloro-2-methylpyridin-3-yl)amino]-2-(4-fluorophenyl)ethyl]thiophen-2-yl}formamido)-3-cyclopentyl-N-cyclopropylpropanamide] as the compound, how does the pIC50 [2] read?
A: The pIC50 was 7.96.

Q: With `C[C@H](Nc1cc(Cl)cnc1-c1cccnc1)c1ccc(C(=O)N[C@@H](CC2CCCC2)C(=O)NC2CC2)s1` [Compound 232, (2S)-2-({5-[(1S)-1-({5-chloro-[2,3′-bipyridin]-3-yl}amino)ethyl]thiophen-2-yl}formamido)-3-cyclopentyl-N-cyclopropylpropanamide] as the compound, how does the pIC50 [2] read?
A: Its pIC50 is 7.89.

Q: With `Cc1ncc(Cl)cc1NC(Cc1cnn(C)c1)c1ccc(C(=O)N[C@@H](CC2CCCC2)C(=O)NC2CC2)s1` (stereo partly drawn) [Compound 188, (2S)-2-[(5-{1-[(5-chloro-2-methylpyridin-3-yl)amino]-2-(1-methyl-1H-pyrazol-4-yl)ethyl}thiophen-2-yl)formamido]-3-cyclopentyl-N-cyclopropylpropanamide] as the compound, how does the pIC50 [2] read?
A: Its pIC50 is 7.96.

Q: `Cc1ncc(Cl)cc1N[C@H](C)c1ncc(C(=O)N[C@@H](CC2CCCC2)C(=O)NC2CC2)s1` [Compound 127, (2S)-2-({2-[(1R)-1-[(5-chloro-2-methylpyridin-3-yl)amino]ethyl]-1,3-thiazol-5-yl}formamido)-3-cyclopentyl-N-cyclopropylpropanamide] was tested. Which pIC50 [2] did it give?
A: The pIC50 was 5.81.

Q: How did the pIC50 [2] turn out when `CC(Nc1cc(Cl)cnc1C(C)(C)O)c1ccc(C(=O)N[C@@H](CC2CCCC2)C(=O)NC2CC2)s1` (stereo partly drawn) [Compound 203, (2S)-2-{[5-(1-{[5-chloro-2-(2-hydroxypropan-2-yl)pyridin-3-yl]amino}ethyl)thiophen-2-yl]formamido}-3-cyclopentyl-N-cyclopropylpropanamide] was run?
A: Its pIC50 is 7.77.

Q: `Cc1ncc(Cl)cc1N[C@@H](C)c1ccc(C(=O)N[C@@H](CCC(C)(C)C)C(=O)NC2CC2)s1` [Compound 161, (2S)-2-({5-[(1S)-1-[(5-chloro-2-methylpyridin-3-yl)amino]ethyl]thiophen-2-yl}formamido)-N-cyclopropyl-5,5-dimethylhexanamide] was tested. Which pIC50 [2] did it give?
A: Its pIC50 is 7.96.

Q: With `C[C@H](Nc1cc(Cl)cnc1CO)c1ccc(C(=O)N[C@@H](CC2CCCC2)C(=O)NC2CC2)s1` [Compound 105, (2S)-2-({5-[(1S)-1-{[5-chloro-2-(hydroxymethyl)129yridine-3-yl]amino}ethyl]thiophen-2-yl}formamido)-3-cyclopentyl-N-cyclopropylpropanamide] as the compound, how does the pIC50 [2] read?
A: Its pIC50 is 7.74.

Q: `COc1ncc(Cl)cc1N[C@H](C)c1ccc(C(=O)N[C@@H](CC2CCCC2)C(=O)NC23CC(C#N)(C2)C3)s1` [Compound 83, (2S)-2-({5-[(1R)-1-[(5-chloro-2-methoxypyridin-3-yl)amino]ethyl]thiophen-2-yl}formamido)-N-{3-cyanobicyclo[1.1.1]pentan-1-yl}-3-cyclopentylpropanamide] was tested. Which pIC50 [2] did it give?
A: Its pIC50 is 6.32.
